Series [1] concerns intraphagosomal M. tuberculosis. As to the kind of experiment: 59Fe acquisition by M. tuberculosis within macrophage phagosomes. The series is classed as cell-based. The following applies: 10 μM Ga(NO3)3; 59Fe transferrin. As for the experimental part: FIG. 6. Ga-transferrin inhibits Fe acquisition by M. tuberculosis within macrophage phagosomes in a concentration-dependent manner. ^59Fe transferrin (10 μM) was added to M. tuberculosis-containing MDMs in the absence (control) or the presence of the indicated concentrations of Ga-transferrin for 24 h MDMs were lysed, and the lysates were filtered through a 0.22-μm (pore-size) filter. M. tuberculosis-associated radioactivity (expressed in cpm) on the filter was determined. Shown are the cpm values as a function of the Ga concentration added from a representative experiment.
Fe-TF is the major form of extracellular Fe, and transport of exogenously added TF to the M. tuberculosis-containing phagosome of human macrophages (Clemens et al., 1996) has been observed. It was therefore hypothesized that gallium competes with Fe uptake by bacteria dividing within the phagosome. […] This was not due to differences in total MDM ^59Fe.
In two recent preliminary experiments, MDM monolayers were preloaded with either ^59Fe or ^67Ga or both (pulse/chase, 24 h each). Erdman M. tuberculosis was then added. After 48 h, bacteria isolated from the phagosome were assessed for associated iron or gallium. Each metal could be found specifically associated with the bacteria.

Series [2] relates to P. aeruginosa. As to the kind of experiment: P. aeruginosa growth in 1:100 strength TSB medium (A600). To be noted: batch culture.
Protocol: Effect of gallium on the growth of P. aeruginosa. Bacteria were inoculated in 1:100 strength TSB medium with the indicated concentrations of gallium and grown at 37° C. with shaking. Growth was monitored as the change in A600 over 15 h.
For series [3], the system named is P. aeruginosa biofilm. Kind of series: Biofilm formation of GFP-labeled P. aeruginosa in continuous culture flow cells. The format is cell-based.
For series [4] the following is noted: patients with cancer-related hypercalcemia; cited from earlier work.
In series [5] the test system is M. tuberculosis within human monocyte-derived macrophages (MDM). The series is classed as cell-based.
For series [6], the target named is IdeR (Mycobacterium tuberculosis, UniProt P9WMH1). As to the kind of experiment: IdeR DNA binding, gel mobility shift assay with HisE promoter region. Also noted: species or system M. tuberculosis. The following applies: for IdeR binding to HisE promoter DNA fragment: 200 μM. From the text:
The iron regulatory element, IdeR, regulates the production of catalase, SOD, and siderophores in mycobacteria (Dussurget et al., 1996) in a manner analogous to P. aeruginosa Fur. In order for DNA binding to occur, IdeR must be complexed with a divalent metal such as Fe^2+ or Ni^2+. The effect of Ga(NO3)3 on the binding (gel mobility shift assay) of IdeR was examined using the HisE promoter region from M. tuberculosis that contains a high affinity IdeR binding site (Schmitt et al., 1995). […] A similar lack of binding of Ga^3+ to P. aeruginosa Fur is expected based on these findings.

The conditions of series [7]: human, in vivo; read-out: peak levels achieved clinically; cited from earlier work.
Series [8] addresses T1, M. tuberculosis RR (Mycobacterium tuberculosis, UniProt P9WH71). Kind of series: Radiolabeled CDP reduction assay for ribonucleotide reductase activity. The format is biochemical. The following applies: n=2; read-out: concentration that inhibited RR activity by 50%.
Series [9] concerns established biofilms. Kind of series: Killing of established three-day-old biofilms, viability by propidium iodide. The format is cell-based, P. aeruginosa. To be noted: 10 μM, 100 μM, 1000 μM; 12, 24, 48, 72 hours. As for the experimental part: FIGS. 10A-10D. Gallium kills established biofilms. Three-day-old biofilms were exposed to gallium in concentrations of 10 μM, 100 μM, and 1000 μM. Biofilm viability was assessed with propidium iodide, and observations were recorded at 12 hours (FIG. 10A), 24 hours (FIG. 10B), 48 hours (FIG. 10C), and 72 hours (FIG. 10D).
Three-day-old biofilms were exposed to gallium in concentrations of 10 μM, 100 μM, and 1000 μM. The biofilm viability was assessed with propidium iodide, and observations were recorded at 12 hours (FIG. 10A), 24 hours (FIG. 10B), 48 hours (FIG. 10C), and 72 hours (FIG. 10D).

Series [10] deals with Erdman M. tuberculosis. As to the kind of experiment: 59Fe acquisition by M. tuberculosis in 7H9 medium. The format is cell-based. The following applies: 500 nM 59Fe-citrate, 6 h. How it is done:
FIGS. 4A-4B. […] Erdman M. tuberculosis (2×10^7 ml) was incubated for 6 h in 7H9 medium (without added Fe and OADC) with 500 nM ^59Fe-citrate (FIG. 4A) or ^67Ga-citrate (FIG. 4B) in the absence or presence of the indicated concentrations of cold competing metal. The bacteria were then washed repeatedly, and bacterium-associated ^67Ga or ^59Fe levels were determined. Results are shown as the amount of metal acquired as a function of increasing concentrations of the cold competing metal. Experimental groups were performed in triplicate, and the data shown represent three independent experiments (mean±SEM).

The subject of series [11] is P. aeruginosa strain PA01. Kind of series: P. aeruginosa growth in iron-supplemented succinate media (A600). The format is cell-based. The following applies: 100 nM gallium. How it is done:
FIG. 7. P. aeruginosa was inoculated to an OD (A600) of about 0.010 into succinate media alone or with FeCl3 supplementation +/− the Ga chelates.
P. aeruginosa growth is dependent on the addition of exogenous Fe (FIG. 7). […] When gallium, either in the form of Ga(NO3)3 or Ga-TF, was added to iron-supplemented succinate media at concentrations ≧1 μM, a gallium concentration-dependent inhibition of P. aeruginosa growth was observed (FIG. 7). […] Similar results were observed under different conditions (see below).

Series [12] concerns the target T1, M. tuberculosis RR. The following applies: Yang et al., 1997; read-out: IC50, RR inhibition; cited from earlier work.
For series [13], the system named is P. aeruginosa. To be noted: cited from earlier work.
The subject of series [14] is Erdman M. tuberculosis. The series is classed as cell-based. The following applies: liquid media.

Read-outs that look alike come from different tables or passages of the source.

The values below come from patent US9539367B2, “Gallium inhibits biofilm formation” (priority 2003, dated 2017).

Sequence of IdeR (P9WMH1 whole entry, the tested form may be a part): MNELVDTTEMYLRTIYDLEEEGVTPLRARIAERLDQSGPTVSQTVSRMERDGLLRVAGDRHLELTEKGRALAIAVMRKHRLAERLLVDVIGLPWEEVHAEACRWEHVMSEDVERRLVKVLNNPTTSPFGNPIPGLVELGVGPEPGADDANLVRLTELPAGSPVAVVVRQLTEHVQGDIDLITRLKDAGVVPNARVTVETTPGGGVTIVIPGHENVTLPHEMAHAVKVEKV
T1 sequence (P9WH71 whole entry): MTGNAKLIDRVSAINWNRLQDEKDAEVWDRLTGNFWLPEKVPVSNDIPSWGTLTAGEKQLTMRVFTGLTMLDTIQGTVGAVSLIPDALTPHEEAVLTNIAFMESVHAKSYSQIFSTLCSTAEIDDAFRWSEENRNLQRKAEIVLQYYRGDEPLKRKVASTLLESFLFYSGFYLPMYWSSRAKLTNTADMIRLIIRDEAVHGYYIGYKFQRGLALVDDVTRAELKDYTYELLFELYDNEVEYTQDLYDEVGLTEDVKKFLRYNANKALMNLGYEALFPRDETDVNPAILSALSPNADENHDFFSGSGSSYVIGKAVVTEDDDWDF

Turning to `O=[N+]([O-])[O-].O=[N+]([O-])[O-].O=[N+]([O-])[O-].[Ga+3]` [Ga(NO3)3, gallium nitrate], in series [1], the “59Fe acquisition by intraphagosomal M. tuberculosis” value is given as “markedly decreased”. Besides, the “concentration above which growth rate of P. aeruginosa significantly decreased” value in series [2] is “exceeded 1 μM”. Besides, the “effect on P. aeruginosa biofilm formation” value in series [3] (0.3 μM Ga(NO3)3 (sub-inhibitory), up to 4 days) is listed as “subsequent steps in biofilm formation were inhibited”. The tolerability result in series [4] was “well tolerated”.
As to `O=[N+]([O-])[O-].[Na+]` [NaNO3, reference compound], the “effect on mycobacterial growth within macrophages” value in series [5] (nitrate control) is on record as “no effect”.
Consider `[Ni+2]` [Ni^2+, reference compound], for which the “IdeR binding to HisE promoter DNA fragment” value in series [6] was “binding was observed”.
`CC(C)(O/N=C(\C(=O)N[C@@H]1C(=O)N2C(C(=O)[O-])=C(C[n+]3ccccc3)CS[C@H]12)c1csc(N)n1)C(=O)O` [ceftazidime, reference compound]: the “effect on P. aeruginosa biofilm development” value in [3] (sub-inhibitory concentration, 0.25 μg/ml) is “did not inhibit biofilm development”.
For the compound `[Ga+3]` [gallium], the “bactericidal activity for M. tuberculosis” value in [5] (extracellularly and even more so intracellularly in macrophages) was “bactericidal”. Moreover, in series [7], the Cmax was 140 to 700 µM. Besides, in series [6], the “interference with Ni2+ or Fe2+ activation of IdeR binding” value is on record as “did not interfere” and the “IdeR binding to HisE promoter DNA fragment” value is reported as “did not lead to IdeR binding”. In series [8], the IC50 amounted to 450 µM. Further, the “killing of established biofilms” value in [9] is “kills established biofilms in a time and concentration dependent manner”. For the same compound, the “competition for M. tuberculosis acquisition of 59Fe” value in series [10] is on record as “highly effective in competing”. Further, in [11], the “effect on P. aeruginosa growth” value is given as “did not inhibit growth”.
Take `NC(=O)NO` [hydroxyurea]: the IC50 in series [12] is 3000 to 5000 µM.
`NC[C@H]1O[C@H](O[C@H]2[C@H](O)[C@@H](O[C@H]3O[C@H](CO)[C@@H](O)[C@H](N)[C@H]3O)[C@H](N)C[C@@H]2N)[C@H](N)C[C@@H]1O` [tobramycin]: the “reduction of biofilm cell counts” value in series [13] (levels far in excess of the MIC, biofilm cells) is listed as “approximately 2 logs”. Also, the “decrease in planktonic cells” value in series [13] (same dosage, planktonic cells) was above 8 log.
Consider “Ga-TF: gallium chelated by serum transferrin (TF)”, for which the “inhibiting mycobacterial growth compared with Ga(NO3)3” value in [5] (within human macrophages) and in series [14] was “as effective as Ga(NO3)3” each time.
